Assay results as given in patent US5411956A, “Lipolytic enzyme inhibitors” (Nisshin Flour Milling Co., Ltd., priority 1989, dated 1995).

What was measured:
[1] = target: T1, porcine pancreatic lipase (Sus scrofa, UniProt P00591); assay: Assay of lipase inhibitory activity (olive oil emulsion with sodium cholate, Tris buffer); assay type: biochemical
T1 construct: purchased Sigma Co., Ltd
T1 sequence (P00591 1-450): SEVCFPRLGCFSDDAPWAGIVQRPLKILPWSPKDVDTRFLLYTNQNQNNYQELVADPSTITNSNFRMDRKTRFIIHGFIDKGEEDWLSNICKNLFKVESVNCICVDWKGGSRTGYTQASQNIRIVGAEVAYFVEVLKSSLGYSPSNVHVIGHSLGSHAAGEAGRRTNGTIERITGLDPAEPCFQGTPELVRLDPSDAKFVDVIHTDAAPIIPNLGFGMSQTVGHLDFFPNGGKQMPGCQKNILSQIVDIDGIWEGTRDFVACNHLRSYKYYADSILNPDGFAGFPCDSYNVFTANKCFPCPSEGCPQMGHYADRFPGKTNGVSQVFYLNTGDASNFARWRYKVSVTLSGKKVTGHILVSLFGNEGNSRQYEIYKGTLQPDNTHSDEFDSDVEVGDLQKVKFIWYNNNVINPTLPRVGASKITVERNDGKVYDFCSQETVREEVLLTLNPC
Experimental: 250 mg of an olive oil, 21.5 mg of sodium cholate as a bile acid component and 30 mg of phosphatidylcholine were added to 5 ml of a 200 mM Tris buffer solution at pH 6.8 (called hereafter "Tris buffer").
(§1) The mixture was ultrasonicated to prepare an olive oil emulsion.
Porcine pancreatic lipase (manufactured by Sigma Co., Ltd.) was added to Tris buffer to prepare an enzyme solution containing 100 units porcine pancreatic lipase per ml.
(§2) The control and six test samples were prepared in the following manner.
(§3) 100 μl of an olive oil emulsion as prepared above were used as a substrate.
(§4) 50 μl of Tris buffer was added to the substrate to prepare an emulsion for control sample. […] All of the emulsions were incubated for 5 min. To each of those emulsions was added 50 μl of the lipase solution as prepared above. The resulting mixture was incubated at 37° C. for one hour, subsequently to which were added 3 ml of the same extraction solvent as used in Example 1. After being shaken for 5 min., the mixture was centrifuged at 3000 rpm for 5 min. The upper layer was removed with an aspirator and to the remaining solution was added 1 ml of the same copper reagent as used in Example 1. The mixture was shaken for 5 min. and centrifuged at 3000 rpm for 5 min. 0.5 ml of a solution was taken from the upper layer and to the solution was added 0.5 ml of the same color developing agent as used in Example 1.
(§5) The resulting solutions for control and test samples were measured for the absorbance at 480 nm (A480) using a photometer to determine the amount of the free fatty acids as formed, i.e., the activity of the porcine pancreatic lipase.
100 μl of an olive oil emulsion prepared in the same way as in Example 4 were used as a substrate.
50 μl of Tris buffer was added to the substrate to prepare an emulsion for control sample. Each 50 μl of the polypeptide-containing solutions as prepared above was added to 100 μl of the substrate to prepare two emulsions for test sample. After incubating the emulsions for 5 min., there was added 50 μl of the enzyme solution prepared in the same way as in Example 4.
Further, the incubated mixture was treated and measured for the activity of porcine pancreatic lipase in the same way as in Example 4.
Lysine oligomers having a degree of polymerization of 2-5 as shown in Table 6 below were prepared using a peptide synthesizer (Biolynx 4170, LKB-Pharmacia Co., Ltd.). Each of the oligomers was purified by high performance liquid chromatography. Each of the purified oligomers was added to distilled water to make up to 1 μmol/ml. […] lysine oligomer-containing solutions were thus prepared.
50 μl of Tris buffer was added to the substrate to prepare an emulsion for control sample. […] After incubating the emulsions for 5 min., there was added 50 μl of a lipase solution containing 100 units of porcine pancreatic lipase per ml as prepared in the same way as in Example 4.

[2] = system: cholesterol esterase isolated from porcine pancreas; conditions: 4 mg/ml protein solution; percentage of control Abs480; sodium cholate present; 37 °C, one hour
Experimental: as §3
as §4, with “potassium phosphate” for “Tris”

[3] = target: T1, porcine pancreatic lipase; assay: Assay of lipase inhibitory activity of proteins (olive oil emulsion with sodium cholate, potassium phosphate buffer); assay type: biochemical; conditions: for Activity of porcine pancreatic lipase (%): 4 mg/ml protein solution, percentage of control Abs480, sodium cholate present, potassium phosphate buffer pH 6.8, 37 °C, one hour
Experimental: 250 mg of an olive oil, 21.5 mg of sodium cholate as a bile acid component and 30 mg of phosphatidylcholine were added to 5 ml of a 300 mM potassium phosphate buffer solution at pH 6.8 (called hereafter "potassium phosphate buffer").
as §1
Porcine pancreatic lipase (manufactured by Sigma Co., Ltd.) was added to the potassium phosphate buffer solution to prepare a lipase solution containing 100 units porcine pancreatic lipase per ml.
as §2, §3
50 μl of potassium phosphate buffer was added to the substrate to prepare an emulsion for control sample. Each 50 μl of the protein(polypeptide)-containing solutions as prepared above was added to 100 μl of the substrate to prepare six emulsions for test samples. All of the emulsions were incubated for 5 min. To each of those emulsions was added 50 μl of the lipase solution as prepared above. The resulting mixture was incubated at 37 ° C. for one hour, subsequently to which were added 3 ml of an extraction solvent (chloroform:methanol:n-heptane=49:1:49). After being shaken for 5 min., the mixture was centrifuged at 3000 rpm for 5 min. The upper layer was removed with an aspirator and to the remaining solution was added 1 ml of a copper reagent (0.45M triethanol amine, 0.05N acetic acid, 3.4% copper sulfate pentahydrate and 20% sodium chloride). The mixture was shaken for 5 min. and centrifuged at 3000 rpm for 5 min. 0.5 ml of a solution was taken from the upper layer and to the solution was added 0.5 ml of a color developing agent (a solution of 0.1% bathocuproine and 0.05% butyl hydroxyanisole in the above extraction solvent).
as §5

[4] = Serum triglyceride concentration in rats after oral corn oil emulsion; assay type: in vivo, SD male rats; conditions: 2 ml corn oil emulsion + 100 mg ε-poly-L-lysine/dextrin 1:1, relative to pre-dose (0)
Experimental: Two groups of 10 SD male rats (9 weeks age, 200 g average bodyweight) were prepared.
50 g of corn oil, 6 g of yolk lecithine and 12.5 g of glycerol were added to distilled water to make up to 100 ml. The mixture was ultrasonicated to prepare an emulsion.
The rats of first group were each given 2 ml of the emulsion and 100 mg of ε-poly-L-lysine manufactured by Chisso Corp. (containing dextrin and ε-poly-L-lysine at a weight ratio of 1:1 and having formula (I) wherein n is ca. 30), orally using a gastric probe. Blood was drawn at predetermined intervals from the tail vein, and serum triglyceride concentration was measured using Kyowa Medics enzyme Kit TG, determined for mean value (mg/dl) per animal and calculated on the basis of serum triglyceride concentration prior to administration (taken as 0 mg/dl) (According to the invention).
The rats of second group were orally given 2 ml of the emulsion and 50 mg of dextrin. Serum triglyceride concentration was measured at predetermined intervals, determined for the average value and calculated in the same way as above (Comparative example).

[5] = 1 mg per 10 ml Tris buffer solution, pH 6.8, sodium cholate present, percentage of control Abs480
[6] = 1 mg/ml peptide solution in distilled water, Tris buffer system as Example 4

With Protamine the “Activity of porcine pancreatic lipase (%)” value [1, 5] was 1.3%.

In the case of α-poly-D-lysine hydrobromide, the “Activity of porcine pancreatic lipase (%)” value [1, 6] is reported as 1.1%.

In the case of α-poly-L-lysine hydrochloride, the “Activity of porcine pancreatic lipase (%)” value [1, 5] is reported as 6.9% and the “Activity of porcine pancreatic lipase (%)” value [1, 6] is reported as 1.6%.

For “β-Lactoglobulin: β-lactoglobulin (L0130, Sigma Co., Ltd.), not a basic protein [reference compound]”, the “Activity of cholesterol esterase (%)” value [2] was 89.9% and the “Activity of porcine pancreatic lipase (%)” value [3] was 103.9%.

For “β-Purothionin: purified β-purothionin (SEQ ID NO: 3) isolated from the crude wheat purothionin mixture (KSCCKSTLGRNCYNLCRARGAQKLCANVCRCKLTSGLSCPKDFPK)”, the “Activity of porcine pancreatic lipase (%)” value [3] was 0%, the “Activity of porcine pancreatic lipase” value ([3]; concentration of 0.04 mg/ml, separate experiment in a similar manner) was 5.2% and the Lipase activity ([3]; protein solution diluted to 0.2 mg/ml, otherwise as Example 1) was 0%. For the same molecule, the “Activity of porcine pancreatic lipase (%)” value [1, 5] was 1.3%.

In the case of ε-poly-L-lysine, the “Blood concentration of neutral fats” value ([4]; 1 hr after oral administration) is reported as 53.3 ± 2.5 mg/dL, the “Blood concentration of neutral fats” value ([4]; 2 hrs after oral administration) is reported as 32.4 ± 4.9 mg/dL and the “Blood concentration of neutral fats” value ([4]; 3 hrs after oral administration) is reported as 16.7 ± 3.2 mg/dL. For the same molecule, the “Blood concentration of neutral fats” value ([4]; 4 hrs after oral administration) was 11.1 ± 3.0 mg/dL and the “Blood concentration of neutral fats” value ([4]; 7 hrs after oral administration) was 4.2 ± 1.0 mg/dL.

B1: Ovalbumin: ovalbumin (A5503, Sigma Co., Ltd.), not a basic protein (protein, UniProt P01012 2-386, looked up)
Ovalbumin: GSIGAASMEFCFDVFKELKVHHANENIFYCPIAIMSALAMVYLGAKDSTRTQINKVVRFDKLPGFGDSIEAQCGTSVNVHSSLRDILNQITKPNDVYSFSLASRLYAEERYPILPEYLQCVKELYRGGLEPINFQTAADQARELINSWVESQTNGIIRNVLQPSSVDSQTAMVLVNAIVFKGLWEKAFKDEDTQAMPFRVTEQESKPVQMMYQIGLFRVASMASEKMKILELPFASGTMSMLVLLPDEVSGLEQLESIINFEKLTEWTSSNVMEERKIKVYLPRMKMEEKYNLTSVLMAMGITDVFSSSANLSGISSAESLKISQAVHAAHAEINEAGREVVGSAEAGVDAASVSEEFRADHPFLFCIKHIATNAVLFFGRCVSP
In the case of B1, the “Activity of cholesterol esterase (%)” value [2] is reported as 93.6% and the “Activity of porcine pancreatic lipase (%)” value [3] is reported as 107.0%.
